The results in this text go back to article PMC13129536 (The Journal of Biological Chemistry, 2026).

The test system of this experiment is M. tuberculosis Erdman. Nature of the experiment: Pathogenic (BSL3) tuberculosis CFU assay. It counts as cell-based. The settings on record: Mycobacterium tuberculosis, 96 h; for IC50: read-out: IC50 (CFU/mL at 96 hours); for IC90: read-out: IC90 (CFU/mL at 96 hours).

With `c1ccc(-c2nc3cc(Cc4ccc5[nH]c(-c6ccccn6)nc5c4)ccc3[nH]2)nc1` [Compound F0850-5995], the IC50 is roughly 1.12 µM and the IC90 turned out to be 6.64 ± 3.86 µM. On to `Cc1ccc(C)c(Nc2nc(NCc3ccccc3)c3ccccc3n2)c1` [Compound F0909-0124], for which the IC50 is roughly 8.97 µM. Take `C[C@@H](O)[C@H]1C(=O)N2C(C(=O)O)=C(S[C@@H]3CN[C@H](C(=O)N(C)C)C3)[C@H](C)[C@H]12` [Meropenem, meropenem, reference compound]: the IC50 was determined as 0.697 ± 0.11 µg/mL and the IC90 worked out at 1.16 ± 0.255 µg/mL.
